Results from BindingDB's records for patent US10202381 (Celgene Quanticel Research Inc, 2019).

Target: T1, Lysine-specific demethylase 4C (Homo sapiens, UniProt Q9H3R0)
T1 sequence (Q9H3R0 whole entry): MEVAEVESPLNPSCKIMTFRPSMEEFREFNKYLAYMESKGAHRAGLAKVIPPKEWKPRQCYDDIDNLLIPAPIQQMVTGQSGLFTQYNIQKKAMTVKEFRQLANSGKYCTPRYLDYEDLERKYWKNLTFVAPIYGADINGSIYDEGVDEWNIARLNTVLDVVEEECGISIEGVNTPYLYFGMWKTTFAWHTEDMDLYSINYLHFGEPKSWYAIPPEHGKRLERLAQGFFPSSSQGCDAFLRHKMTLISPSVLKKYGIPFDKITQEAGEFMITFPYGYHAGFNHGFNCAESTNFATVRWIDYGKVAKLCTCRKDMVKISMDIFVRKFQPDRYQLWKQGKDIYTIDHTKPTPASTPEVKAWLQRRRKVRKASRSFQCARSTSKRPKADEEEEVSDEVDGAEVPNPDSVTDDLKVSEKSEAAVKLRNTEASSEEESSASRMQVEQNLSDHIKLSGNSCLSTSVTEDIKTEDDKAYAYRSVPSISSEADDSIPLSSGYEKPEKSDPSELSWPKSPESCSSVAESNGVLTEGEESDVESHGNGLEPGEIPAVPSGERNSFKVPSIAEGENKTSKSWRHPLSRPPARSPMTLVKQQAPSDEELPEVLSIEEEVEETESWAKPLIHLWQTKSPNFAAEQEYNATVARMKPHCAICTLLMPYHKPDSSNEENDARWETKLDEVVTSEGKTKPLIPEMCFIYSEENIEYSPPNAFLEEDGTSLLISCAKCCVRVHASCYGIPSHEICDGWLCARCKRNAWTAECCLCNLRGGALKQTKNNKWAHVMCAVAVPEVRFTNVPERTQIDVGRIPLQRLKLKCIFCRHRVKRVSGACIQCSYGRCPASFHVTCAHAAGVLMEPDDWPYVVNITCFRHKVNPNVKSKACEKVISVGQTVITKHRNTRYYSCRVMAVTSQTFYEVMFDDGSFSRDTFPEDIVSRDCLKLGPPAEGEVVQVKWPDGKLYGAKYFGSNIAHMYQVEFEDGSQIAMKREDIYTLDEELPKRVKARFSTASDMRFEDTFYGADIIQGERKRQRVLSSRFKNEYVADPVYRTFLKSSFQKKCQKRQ
Experiment: JMJD2C Assay
Protocol: The ability of test compounds to inhibit the activity of JMJD2C was determined in 384-well plate-format under the following reaction conditions: 0.3 nM JMJD2C, 300 nM H3K9me3-biotin labeled peptide (Anaspec cat #64360), 2 μM alpha-ketoglutaric acid in assay buffer of 50 mM HEPES, pH 7.3, 0.005% Brij35, 0.5 mM TCEP, 0.2 mg/ml BSA, 50 μM sodium L-ascorbate, and 2 μM ammonium iron(II) sulfate. Reaction product was determined quantitatively by TR-FRET after the addition of detection reagent Phycolink Streptavidin-allophycocyanin (Prozyme) and Europium-anti-di-methylated histone H3 lysine 9 (H3K9me2) antibody (PerkinElmer) in the presence of 5 mM EDTA in LANCE detection buffer (PerkinElmer) at a final concentration of 50 nM and 1 nM, respectively.The assay reaction was initiated by the following: 2 μl of the mixture of 900 nM H3K9me3-biotin labeled peptide and 6 μM alpha-ketoglutaric acid with 2 μl of 11-point serial diluted inhibitor in 3% DMSO were added to each well of the plate, followed by the addition of 2 μl of 0.9 nM JMJD2C to initiate the reaction. […] Plates were read by EnVisionMultilabel Reader in TR-FRET mode (excitation at 320 nm, emission at 615 nm and 665 nm) after 1 hr incubation at room temperature. A ratio was calculated (665/615) for each well and fitted to determine inhibition constant (IC50).

| IC50 [nM] | Compound |
| --- | --- |
| < 100 | COc1ccc(N2CCN(C)CC2)cc1N(C)c1ccc(Oc2nc(O)c3ccncc3n2)cc1C [US10202381, Example 145] |
| < 100 | Cc1cc(Oc2nc(O)c3ccncc3n2)ccc1N(C)c1cc(N2CCN(C)CC2)ccc1C [US10202381, Example 147] |
